These results are taken from paper PMC8009417, “Selective killing of homologous recombination-deficient cancer cell lines by inhibitors of the RPA:RAD52 protein-protein interaction” (PLoS ONE, 2021).

pEC50, pIC50: −log10 of the molar value.

The target of assay [1] is RAD52 ssDNA binding domain. The arrangement: method as in PMID 26548611. The following applies: read-out: IC50, allosteric inhibitor of the RAD52 ssDNA binding domain; cited from earlier work.
Assay [2] has as its target RPA, endogenous in U2OS cells (human (endogenous in U2OS)) (UniProt P15927).
Assay [3] has as its system BRCA2-deficient PE01 ovarian cancer cells (BRCA2-). Description: Cell viability assay (PrestoBlue, 72 h), PE01. Format: cell-based. Conditions: Homo sapiens, estimated from the graphs. On the procedure: BRCA2-deficient PE01 cell line (a gift from Dr. Toshiyasu Taniguchi, Tokai University, Japan) were derived from an ovarian cancer patient. BRCA2-proficient “revertant” cell line, C4-2 is one of eight clones derived from PE01 that has acquired resistance to both cisplatin and PARPi due to a secondary mutation that restored the BRCA2 function. PE01 and PE01 C4-2 were grown and maintained in DMEM high glucose (Hyclone) supplemented with 10% Fetal Bovine Serum (FBS, Invitrogen).
(§1) Cells were seeded 5 x 10^3 cells per well in 96-well plates in a 90 μL volume per well one day before treatment. Cells in 96-well plates were incubated with increasing concentrations of the compound or vehicle control (1% DMSO) for 72 hours. Each treatment plate contained nine concentrations of a compound in sextuplicate. Growth inhibition was determined using PrestoBlue reagent (Life Technologies, #A13261). Fluorescent measurements were taken using a Spectramax M5 plate reader (MDS). To assess cells’ replication in the absence of compounds as a control, six wells on each plate were treated with vehicle to be read in triplicate at the initial treatment day (T0) and at 72-hour read (T100).

Assay [4] deals with BRCA1-deficient HCC1937 breast cancer cells (empty vector, BRCA1-). Description: Cell viability assay (PrestoBlue, 72 h), HCC1937 with empty vector. Format: cell-based. The following applies: Homo sapiens, estimated from the graphs. As to the method: (§2) Fig 2 BRCA1-deficient HCC1937 breast cancer cell line survival assay. BRCA1-deficient HCC1937 cells corrected with wild-type BRCA1 gene (BRCA1+; closed triangle), and with an empty vector (BRCA1-; closed circle) were examined. For each experiment (Figs 2–4), cell lines were treated with nine concentrations of (A) quinacrine, (B) mitoxantrone, and (C) doxorubicin in 96-well culture plates at 5x10^3 cell/well density. Each treatment point was made in sextuplicate. Treated cells were incubated for 72 hours at 37°C before assessing cell viability using PrestoBlue. Data were normalized to vehicle control. The experiment was repeated three times. Error bars indicate the standard deviation.
(§3) The HCC1937 cell line (a gift from Dr. Simon Powell Memorial Sloan Kettering (MSK), New York) was derived from a mammary gland primary ductal carcinoma at the early onset of a tumor. This TNBC patient carried a germline mutation in BRCA1, resulting in carboxy-terminal truncated protein and loss of the second BRCA1 allele. BRCA1-restored and empty vector cell lines were also obtained by transfection of a vector containing a full-length human BRCA1 cDNA or an empty vector, respectively. The HCC1937 cell lines were cultured as described.
as §1

Assay [5] relates to UWB1.289 cells corrected with wild-type BRCA1 gene (BRCA1+). The experiment in a line: Cell viability assay (PrestoBlue, 72 h), UWB1.289+BRCA1. It is filed as cell-based. Conditions: Homo sapiens, UWB1289, estimated from the graphs.
Excerpt: (§4) BRCA1-deficient UWB1.289 cells corrected with wild-type BRCA1 gene (BRCA1+; closed triangle) and parental BRCA1-deficient UWB1.289 (BRCA1-; closed circle). Two PARPi-resistant cell lines derived from UWB1.289, UWB1.289.SYr12 (closed diamond) and UWB1.SYr13 (X), were also examined.
(§5) UWB1.289 (a gift from Dr. Lee Zou, Harvard Medical School, Boston, MA) were derived from a serous ovarian carcinoma with a germline BRCA1 mutation and a deletion of the wild-type allele. […] Two PARP-resistant cell lines, SYr12 and SYr13, were derived from the UWB1.289. The Mammary Epithelial growth media, along with SupplementMix solution for UWB1 cell lines, were obtained from PromoCell GmbH and mixed as described.
as §1

The test system of assay [6] is BRCA2-revertant PE01 C4-2 cells (BRCA2+). The experiment in a line: Cell viability assay (PrestoBlue, 72 h), PE01 C4-2. The following applies: Homo sapiens, C4-2, 72 h, read-out: EC50, cell viability.
Assay [7] deals with HCC1937 cells corrected with wild-type BRCA1 gene (BRCA1+). The experiment in a line: Cell viability assay (PrestoBlue, 72 h), HCC1937+BRCA1. Format: cell-based. Conditions: Homo sapiens, estimated from the graphs. On the procedure:
as §2, §3, §1

Assay [8] deals with PARPi-resistant UWB1.SYr13 cells. The experiment in a line: Cell viability assay (PrestoBlue, 72 h), UWB1.SYr13. Format: cell-based. The following applies: Homo sapiens, estimated from the graphs.
Excerpt: as §4, §5, §1

Assay [9] has as its target T1, RPA:RAD52 protein-protein interaction (Homo sapiens, UniProt P43351).
T1 construct: made in house
T1 sequence (P43351 1-418): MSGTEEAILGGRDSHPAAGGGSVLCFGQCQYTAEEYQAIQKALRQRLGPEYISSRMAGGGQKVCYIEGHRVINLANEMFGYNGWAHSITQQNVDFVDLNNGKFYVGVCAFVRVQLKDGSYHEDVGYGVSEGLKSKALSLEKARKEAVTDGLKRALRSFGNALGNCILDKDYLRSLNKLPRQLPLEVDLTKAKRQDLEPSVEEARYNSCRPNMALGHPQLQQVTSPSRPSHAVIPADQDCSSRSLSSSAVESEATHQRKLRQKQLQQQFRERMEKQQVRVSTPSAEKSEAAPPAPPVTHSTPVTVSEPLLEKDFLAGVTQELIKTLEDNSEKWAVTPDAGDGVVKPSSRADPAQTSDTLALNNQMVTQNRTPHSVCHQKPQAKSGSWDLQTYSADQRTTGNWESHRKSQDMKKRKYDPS
The experiment in a line: FluorIA (Fluorescence-based protein-protein Interaction Assay), GFP-RAD52 binding to plate-coated RPA. The following applies: polynomial curve fitting; 15 dose concentrations 0.03–500 μM, triplicate; RAD52(1–303) positive control; read-out: EC50 in FluorIA (inhibition of RPA:RAD52 PPI). As to the method: A newly developed fluorescence-based assay for detecting protein-protein interactions, FluorIA was used to identify SMIs of RPA:RAD52 PPI. The detailed FluorIA protocol is published elsewhere. Briefly, 384-well plates (Thermo Fisher Scientific, #460518) were coated with purified RPA. Then compounds or controls were added and incubated with freshly prepared GFP-RAD52. RAD52(1–303) without GFP-tag and buffer (including DMSO) only were used as controls. Then the relative fluorescence (RFU) was measured using a POLARstar OPTIMA plate reader (BMG LABTECH) on emptied plates at an excitation/emission (for eGFP) of 485/520 nm at 2500 gain setting.
Three chemical libraries the 355-member SelleckChem Kinase Inhibitor Library, the 1200-member Prestwick Chemical Library, and the 100,000-member ChemBridge library were used for the screening. The screening of the SelleckChem Kinase Inhibitor and the Prestwick libraries were performed at 10 and 100 μM each in duplicate. The screening of the ChemBridge library was conducted at 100 μM. […] The statistical criteria for a hit were fully described in Al-Mugotir et al.. Each hit was verified in triplicate at 10 and 100 μM.
The in vitro EC50 value of each hit was determined with FluorIA. The chemicals were serially diluted by two-fold increments from 0.030 to 500 μM and analyzed in triplicate with FluorIA. RAD52(1–303) was used as a positive control and buffer with DMSO was used as a negative control. Candidate SMIs with strong inhibition were purchased, and a 1D NMR analysis was carried out to verify their identities. The eleven candidates SMIs were purchased as follows: 5137134, 5246481, 52614577,5316833, 5373030, and 7623574 from Chembridge HIT2LEAD, 5989499 from Wuxi lab network, 5375405 from Aronis, quinacrine and mitoxantrone from Sigma Aldrich, and doxorubicin from LC labs. D-I03 was purchased from Molport. Their effectiveness in inhibiting the RPA:RAD52 PPI was confirmed after purchase with the FluorIA as described above (S1 Fig).
Supplementary file pone.0248941.s001.tif: S1 Fig Validation experiments of eleven hits with the FlourIA. Sixteen treatment concentrations were used (0.030–500 μM) increasing by two-fold increments of each molecule/drug obtained as a hit in HTS FluorIA. RAD52(1–303) without GFP-tag and buffer (including DMSO) only were used as controls. Percent inhibition was calculated as follows: [(RFUSMI—RFURAD52(1–303)) / (RFUDMSO—RFURAD52(1–303))]*100, where RFU is relative fluorescence unit. An average of triplicate measurements was used. The treatment points for quinacrine and doxorubicin beyond 125 μM were showing characteristics of aggregation and were not used. (TIF) Click here for additional data file.

Assay [10] concerns PARPi-resistant UWB1.289.SYr12 cells. Description: Cell viability assay (PrestoBlue, 72 h), UWB1.289.SYr12. It is filed as cell-based. Conditions: Homo sapiens, estimated from the graphs.
Excerpt: as §4, §5, §1

Assay [11] has as its system BRCA1-deficient UWB1.289 ovarian cancer cells (BRCA1-). Description: Cell viability assay (PrestoBlue, 72 h), UWB1.289. Format: cell-based. The following applies: Homo sapiens, UWB1289, estimated from the graphs.
Excerpt: as §4, §5, §1

RPA, endogenous in U2OS cells (human (endogenous in U2OS)), sequence (P15927 whole entry, looked up): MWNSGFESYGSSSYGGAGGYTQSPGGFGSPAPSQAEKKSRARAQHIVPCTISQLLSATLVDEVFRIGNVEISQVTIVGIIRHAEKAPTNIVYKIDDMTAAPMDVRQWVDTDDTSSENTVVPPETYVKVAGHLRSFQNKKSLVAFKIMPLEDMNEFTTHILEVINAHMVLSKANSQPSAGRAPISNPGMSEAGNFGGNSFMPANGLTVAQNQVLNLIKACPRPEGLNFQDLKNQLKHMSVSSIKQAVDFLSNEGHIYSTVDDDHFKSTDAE

By pIC50 is commonly meant the negative decadic logarithm of the IC50, by convention in mol/L. `NC(Cc1cc(O)c(O)cc1O)C(=O)O` (racemic) [6-hydroxy-DL-dopa]: in [1], the pIC50 was 5.96.

“RAD52, endogenous in U2OS cells (from UniProt P43351 1-418) (natural protein)”: in assay [2], the inhibition of single-strand annealing (SA-GFP reporter in U2OS-SA cells, FACS) by mitoxantrone, an inhibitor of the RPA:RAD52 interaction, at 4 nM amounted to 72%.

As a reminder, the pEC50 is −log10 of the EC50, conventionally taken in molar units. Regarding `COc1cccc2c1C(=O)c1c(O)c3c(c(O)c1C2=O)C[C@@](O)(C(=O)CO)C[C@@H]3O[C@H]1C[C@H](N)[C@H](O)[C@H](C)O1` [Doxorubicin, doxorubicin], the pEC50 in [3] is 7.30; in [4], 6.52; in [5], 5.60; in assay [6], 6.15; in [7], 5.82; in [8], 5.60. Further, the negative logarithm of the EC50 (pEC50) in [9] is 5.00; in [10] it was 6.10; in assay [11] it was 6.52.

Take `Cc1cc2nc3ccc(N(C)C)cc3nc2cc1N` [compound 5316833]: the pEC50 in [9] is 4.18.

On to `Nc1cc(S(=O)(=O)O)cc2cc(S(=O)(=O)O)cc(O)c12` [compound 5137134], for which the pEC50 in assay [9] was 3.98.

For the compound `CCN(CC)CCCC(C)Nc1c2ccc(Cl)cc2nc2ccc(OC)cc12` (stereo not shown) [Quinacrine, quinacrine], the negative logarithm of the EC50 (pEC50) is 5.42 in [3]; 5.77 in [4]; under 5.00 in assay [5]; 5.35 in assay [6]; 5.34 in assay [7]; under 5.00 in assay [8]. Besides, the pEC50 in [9] was 4.01; in assay [10], under 5.00; in assay [11], 5.27.
